From patent publication US10745397B2, “1-Substituted 1,2,3,4-tetrahydro-1,7-naphthyridin-8-amine derivatives and their use as EP4 receptor antagonists” (TAKEDA PHARMACEUTICAL COMPANY LIMITED, priority 2015, dated 2020) come the findings set out here.

For one test, the target named is T1, human EP4 receptor (Homo sapiens, UniProt P35408).
T1 construct: expressed in transfected cells; host or cells: FreeStyle293 (HEK293F) cells, transient transfection with pcDNA3.1(+), total membrane fraction
The test can be described thus: hEP4 radioligand binding assay ([3H] PGE2 competitive binding, membrane fractions). The following applies: 300 nM compound; 1 nM [3H] PGE2. From the text:
The full-length coding sequences for human EP1 (NM_000955), human EP2 (NM_000956), human EP3 (NM_198717) and human EP4 (NM_000958) were cloned into pcDNA3.1(+) vector (Life Technologies, CA, USA). In order to prepare overexpressed EP 1-4 membrane in Freestyle293 cells (Life Technologies, CA, USA), the pcDNA3.1(+) vector encoding a cDNA of the relevant gene was transiently transfected into FreeStyle293 cells using 293Fectin (Life Technologies, CA, USA) according to the manufacturer instruction manual. After 2 days, cultured cells were centrifuged (1,000×g, 10 min, 4° C.) and pellets homogenized by a probe sonicator (Sonics vibracell, Sonics and Materials Inc., USA; 31% Amp, 5 sec pulse, Imin interval, 4 cycles) in ice-cold 50 mM Tris-HCl buffer (pH 7.5 at 25° C.) containing 0.5 mM EDTA, 250 mM Sucrose and 10 mM MgCl2. Cell homogenates were centrifuged (890×g, 10 min, 4° C.), and the supernatant was recovered. Total membrane fractions were isolated by ultracentrifugation (140,000×g, 60 min, 4° C.). Pellets were re-suspended in the same buffer, and stored at −80° C. until use. The protein concentration in homogenate was determined with the BCA Protein Assay Kit (Pierce Biotechnology, Inc., IL, USA) according to the manufacturer protocol.
The binding affinity of the compounds was evaluated using a competitive radioligand binding assay which measured the specific binding of [3H] PGE2 to the human EP4 receptor. Briefly, varying concentrations of NCEs were incubated with cell membrane fractions generated HEK293F cells transiently transfected with human EP4 receptor as described above. Each reaction consisted of 10 μg membrane protein and NCE in 50 mM Tris-HCl, pH-6.0 by NaOH, 10 mM MgCl2 and 0.5 mM EDTA assay buffer. Radioligand, [3H] PGE2 (American Radiochemicals Inc. Specific Activity 180 Ci/mmol), at a final of 1 nM was added to each reaction where the final assay volume was 200 μL and concentration of DMSO was adjusted to 1%. Appropriate controls included total binding in the assay (vehicle control) and control for non-specific binding. Non-specific binding was evaluated by incubating the hEP4 protein with 10 μM unlabeled PGE2 under the same assay conditions as NCEs. The reaction was incubated at room temperature for 2 hours and terminated by harvesting the reaction contents to a PEI coated GF/C filter plate (PerkinElmer). The plate was washed four times with cold 50 mM Tris-HCl, pH-7.5 wash buffer and dried at 50° C. for 2 hours or at 37° C. overnight. [3H] PGE2 bound to the protein was quantified by the addition of 25 μL of Microscint PS (PerkinElmer) and plate was read on MicroBeta2 liquid Scintillation and luminescence counter (PerkinElmer). Data was analyzed using GraphPad Prism 5 (GraphPad Software Inc., San Diego, Calif.) where non-specific binding was normalized to 0% specific binding of [3]PGE2 and vehicle control (DMSO) was normalized to 100% specific binding of [3]PGE2. Binding affinity of NCEs, Ki, was generated using One site—Fit Ki equation in GraphPad Prism 5.

Test [1] deals with T2, hEP4 (C6 glioma cells overexpressing hEP4) (Homo sapiens, UniProt P35408).
T2 construct: host or cells: C6 glioma cells overexpressing hEP4
The test can be described thus: hEP4 cell based assay (cAMP), inhibition of PGE2 induced cAMP, HTRF. The following applies: 1 μM compound, PGE2 at EC80. On the procedure:
The functional assay for hEP4 activation and inhibition was carried out via the quantitative determination of agonist, PGE2, induced cAMP response using HTRF in a competitive immunoassay (Cisbio dynamic 2 kit). NCEs at varying concentrations were evaluated for inhibition of PGE2 induced increase in cAMP. Briefly, C6 glioma cells overexpressing hEP4 (Takeda) were cultured in DMEM (low glucose, pyruvate), 10% FBS (Gibco) and PenStep. The cells were harvested on the day of the assay, washed with HBSS+10 mM HEPES (pH 7.4)+0.1% BSA buffer and pre-incubated with varying concentrations of NCE. Each reaction contained 7000 cells and NCEs in HBSS+10 mM HEPES+0.1% BSA assay buffer along with PDE inhibitors IBMX and Ro 20-1724 (final concentration of each inhibitor […]). Following 15 min pre-incubation, the cells were treated with EC80 concentration of agonist PGE2 for 30 min to induce cAMP. Final volume of the assay was 6 μL and DMSO concentration was maintained at 1%. The reaction was terminated with the addition of cAMP labeled with the dye d2 in lysis buffer according to manufacturers' protocol. This was followed by the addition of the anti-cAMP antibody labeled with Cryptate according to the manufacturers' protocol. The reaction was incubated at room temperature in dark for 45 min and the plate was evaluated for fluorescence at 665 nm (FRET) and 620 nm (cryptate emission) on a Flexstation III microplate reader (Molecular Devices, Sunnyvale, Calif.) Ex max: 313 nm; Em1: 620 nm; Em2: 665 nm. Data was analyzed using GraphPad Prism 5 (GraphPad Software Inc., San Diego, Calif.) where cells treated with agonist (EC80) was normalized to 0% inhibition of hEP4 and cells treated with buffer (no agonist) was normalized to 100% inhibition of hEP4. IC50 of NCEs was generated using non-linear regression—Log(inhibitor) vs. response equation in GraphPad Prism 5.

T2 sequence (P35408 whole entry): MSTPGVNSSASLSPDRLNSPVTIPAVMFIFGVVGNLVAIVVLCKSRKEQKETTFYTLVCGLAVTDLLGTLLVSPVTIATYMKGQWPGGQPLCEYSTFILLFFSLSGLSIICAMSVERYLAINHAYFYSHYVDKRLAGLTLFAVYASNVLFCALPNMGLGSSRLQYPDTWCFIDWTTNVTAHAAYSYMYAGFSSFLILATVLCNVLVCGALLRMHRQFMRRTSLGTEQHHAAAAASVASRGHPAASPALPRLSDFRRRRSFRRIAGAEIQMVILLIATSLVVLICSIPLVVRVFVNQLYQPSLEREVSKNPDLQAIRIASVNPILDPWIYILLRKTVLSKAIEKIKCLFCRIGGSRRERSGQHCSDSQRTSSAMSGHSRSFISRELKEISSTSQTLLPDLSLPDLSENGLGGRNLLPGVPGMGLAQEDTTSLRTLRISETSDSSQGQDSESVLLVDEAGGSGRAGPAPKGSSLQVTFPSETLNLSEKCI
T1 sequence (P35408 whole entry): as above

At human EP4 receptor, `Cc1cccc(CN2CCOc3ccnc(NC4(c5ccc(C(=O)O)cc5)CC4)c32)c1` [Example B25, 4-[1-[[4-(m-tolylmethyl)-2,3-dihydropyrido[4,3-b][1,4]oxazin-5-yl]amino]cyclopropyl]benzoic acid] showed an inhibition at 0.3 µM of 98%. The molecule also came in with an inhibition at 1 µM in test [1] of 79%.
For `Cc1ccc(CN2CCOc3ccnc(NC4(c5ccc(C(=O)O)cc5)CC4)c32)cc1` [Example B26, 4-[1-[[4-(p-tolylmethyl)-2,3-dihydropyrido[4,3-b][1,4]oxazin-5-yl]amino]cyclopropyl]benzoic acid], in that order: 93% and 87%.
Take `C[C@H](Nc1nccc2c1N(Cc1ccc3ccccc3c1)CCO2)c1ccc(C(=O)O)cc1` [Example B29, 4-[(1S)-1-[[4-(2-naphthylmethyl)-2,3-dihydropyrido[4,3-b][1,4]oxazin-5-yl]amino]ethyl]benzoic acid]: the inhibition at 0.3 µM on human EP4 receptor turned out to be 100%. This molecule also came in with an inhibition at 1 µM in test [1] of 96%.
The corresponding values for `C[C@H](Nc1nccc2c1N(Cc1ccc(-c3ccccc3)cc1)CCO2)c1ccc(C(=O)O)cc1` [Example B30, 4-[(1S)-1-[[4-[(4-phenylphenyl)methyl]-2,3-dihydropyrido[4,3-b][1,4]oxazin-5-yl]amino]ethyl]benzoic acid] are 87% and 77%.
For `C[C@H](Nc1nccc2c1N(Cc1ccc(C(F)(F)F)o1)CCO2)c1ccc(C(=O)O)cc1` [Example B31, 4-[(1S)-1-[[4-[[5-(trifluoromethyl)-2-furyl]methyl]-2,3-dihydropyrido[4,3-b][1,4]oxazin-5-yl]amino]ethyl]benzoic acid], in that order: 92% and 98%.
At human EP4 receptor, `C[C@@H](Nc1nccc2c1N(Cc1ccc(C(F)(F)F)cc1)CCO2)c1ccc(C(=O)O)cc1` [Example B32, 4-[(1R)-1-[[4-[[4-(trifluoromethyl)phenyl]methyl]-2,3-dihydropyrido[4,3-b][1,4]oxazin-5-yl]amino]ethyl]benzoic acid] came in with an inhibition at 0.3 µM of 53%. The same molecule had an inhibition at 1 µM in test [1] of 47%.
For the molecule `C[C@@H](Nc1nccc2c1N(Cc1cccc(Cl)c1)CCO2)c1ccc(C(=O)O)cc1` [Example B33, 4-[(1R)-1-[[4-[(3-chlorophenyl)methyl]-2,3-dihydropyrido[4,3-b][1,4]oxazin-5-yl]amino]ethyl]benzoic acid], on human EP4 receptor, the inhibition at 0.3 µM came to 66%. The same molecule showed an inhibition at 1 µM in test [1] of 36%.
The corresponding values for `C[C@H](Nc1nccc2c1N(Cc1ccc(C(F)(F)F)cc1)CCC2)c1ccc(C(=O)O)cc1` [Example B37, 4-[(1S)-1-[[1-[[4-(trifluoromethyl)phenyl]methyl]-3,4-dihydro-2H-1,7-naphthyridin-8-yl]amino]ethyl]benzoic acid] are 97% and 97%.
In turn, `C[C@H](Nc1nccc2c1N(CC1CCCCC1)CCO2)c1ccc(C(=O)O)cc1` [Example B39, 4-[(1S)-1-[[4-(cyclohexylmethyl)-2,3-dihydropyrido[4,3-b][1,4]oxazin-5-yl]amino]ethyl]benzoic acid] yielded an inhibition at 0.3 µM on human EP4 receptor of 100%. For the same molecule, in test [1], the inhibition at 1 µM was found to be 93%.
The corresponding values for `C[C@H](Nc1nccc2c1N(CCc1cccc(Cl)c1)CCO2)c1ccc(C(=O)O)cc1` [Example B40, 4-[(1S)-1-[[4-[2-(3-chlorophenyl)ethyl]-2,3-dihydropyrido[4,3-b][1,4]oxazin-5-yl]amino]ethyl]benzoic acid] are 80% and 85%.
The corresponding values for `C[C@H](Nc1nccc2c1N(Cc1ccc(F)c(F)c1)CCC2)c1ccc(C(=O)O)cc1` [Example B44, 4-[(1S)-1-[[1-[(3,4-difluorophenyl)methyl]-3,4-dihydro-2H-1,7-naphthyridin-8-yl]amino]ethyl]benzoic acid] are 93% and 92%.
For `C[C@H](Nc1nccc2c1N(Cc1cccc(Cl)c1)CCC2)c1ccc(C(=O)O)cc1` [Example B45, 4-[(1S)-1-[[1-[(3-chlorophenyl)methyl]-3,4-dihydro-2H-1,7-naphthyridin-8-yl]amino]ethyl]benzoic acid], 0.3 µM produced 100% inhibition on human EP4 receptor. The molecule also yielded an inhibition at 1 µM in test [1] of 98%.
As to `Cc1cnc(N[C@@H](C)c2ccc(C(=O)O)cc2)c2c1OCCN2Cc1cccc(C(F)(F)F)c1` [Example B46, 4-[(1S)-1-[[8-Methyl-4-[[3-(trifluoromethyl)phenyl]methyl]-2,3-dihydropyrido[4,3-b][1,4]oxazin-5-yl]amino]ethyl]benzoic acid], the inhibition at 0.3 µM at human EP4 receptor was 87%. In test [1], this molecule gave an inhibition at 1 µM of 95%.
In the case of `C[C@H](Nc1nccc2c1N(Cc1ccc(C(F)(F)F)cc1)CCO2)c1ccc(C(N)=O)cc1` [Example D1, 4-[(1S)-1-[[4-[[4-(Trifluoromethyl)phenyl]methyl]-2,3-dihydropyrido[4,3-b][1,4]oxazin-5-yl]amino]ethyl]benzamide], the inhibition at 0.3 µM on human EP4 receptor was determined as 85%. Moreover, the inhibition at 1 µM in test [1] was determined as 98%.
The corresponding values for `CONC(=O)c1ccc([C@H](C)Nc2nccc3c2N(Cc2ccc(C(F)(F)F)cc2)CCO3)cc1` [Example D2, N-Methoxy-4-[(1S)-1-[[4-[[4-(trifluoromethyl)phenyl]methyl]-2,3-dihydropyrido[4,3-b][1,4]oxazin-5-yl]amino]ethyl]benzamide] are 87% and 92%.
The corresponding values for `CNC(=O)c1ccc([C@H](C)Nc2nccc3c2N(Cc2ccc(C(F)(F)F)cc2)CCO3)cc1` [Example D3, N-methyl-4-[(1S)-1-[[4-[[4-(trifluoromethyl)phenyl]methyl]-2,3-dihydropyrido[4,3-b][1,4]oxazin-5-yl]amino]ethyl]benzamide] are 73% and 84%.
For `CCONC(=O)c1ccc([C@H](C)Nc2nccc3c2N(Cc2ccc(C(F)(F)F)cc2)CCO3)cc1` [Example D4, N-ethoxy-4-[(1S)-1-[[4-[[4-(trifluoromethyl)phenyl]methyl]-2,3-dihydropyrido[4,3-b][1,4]oxazin-5-yl]amino]ethyl]benzamide], in that order: 92% and 93%.
On to `C[C@H](Nc1nccc2c1N(Cc1ccc(C(F)(F)F)cc1)CCO2)c1ccc(C(=O)NOCc2ccccc2)cc1` [Example D5, N-benzyloxy-4-[(1S)-1-[[4-[[4-(trifluoromethyl)phenyl]methyl]-2,3-dihydropyrido[4,3-b][1,4]oxazin-5-yl]amino]ethyl]benzamide], for which the inhibition at 0.3 µM on human EP4 receptor worked out at 88%. Besides, at 1 µM the inhibition in test [1] was 90%.
